What was measured:
786-0 = experiment: NCI in vitro cancer screen, Renal Cancer; format: cell-based, human; conditions: 786-0
PC-3 = experiment: NCI in vitro cancer screen, Prostate Cancer; format: cell-based, human; conditions: PC-3
SNB-75 = experiment: NCI in vitro cancer screen, CNS Cancer; format: cell-based, human; conditions: SNB-75
SN12C = experiment: NCI in vitro cancer screen, Renal Cancer; format: cell-based, human
HL-60 (TB) = experiment: NCI in vitro cancer screen, Leukemia; format: cell-based, human; conditions: HL-60 (TB)
IGROV1 = experiment: NCI in vitro cancer screen, Ovarian Cancer; format: cell-based, human; conditions: IGROV1
RXF-393 = experiment: NCI in vitro cancer screen, Renal Cancer; format: cell-based, human; conditions: RXF-393
OVCAR-3 = experiment: NCI in vitro cancer screen, Ovarian Cancer; format: cell-based, human; conditions: OVCAR-3
OVCAR-5 = experiment: NCI in vitro cancer screen, Ovarian Cancer; format: cell-based, human; conditions: OVCAR-5
SF-268 = experiment: NCI in vitro cancer screen, CNS Cancer; format: cell-based, human; conditions: SF-268
KM12 = experiment: NCI in vitro cancer screen, Colon Cancer; format: cell-based, human; conditions: KM12
A549/ATCC = experiment: NCI in vitro cancer screen, Non-Small Cell Lung Cancer; format: cell-based, human
HOP-92 = experiment: as above; format: cell-based, human; conditions: HOP-92
K-562 = experiment: NCI in vitro cancer screen, Leukemia; format: cell-based, human; conditions: K-562
SF-539 = experiment: NCI in vitro cancer screen, CNS Cancer; format: cell-based; conditions: SF-539
A498 = experiment: NCI in vitro cancer screen, Renal Cancer; format: cell-based, human; conditions: A498
T-47D = experiment: NCI in vitro cancer screen, Breast Cancer; format: cell-based, human
NCI-H226 = experiment: NCI in vitro cancer screen, Non-Small Cell Lung Cancer; format: cell-based, human; conditions: NCI-H226
SW-620 = experiment: NCI in vitro cancer screen, Colon Cancer; format: cell-based, human; conditions: SW-620
OVCAR-8 = experiment: NCI in vitro cancer screen, Ovarian Cancer; format: cell-based, human; conditions: OVCAR-8
NCI-H522 = experiment: NCI in vitro cancer screen, Non-Small Cell Lung Cancer; format: cell-based, human; conditions: NCI-H522
UACC-62 = experiment: NCI in vitro cancer screen, Melanoma; format: cell-based, human; conditions: UACC-62
SF-295 = experiment: NCI in vitro cancer screen, CNS Cancer; format: cell-based, human; conditions: SF-295
SK-OV-3 = experiment: NCI in vitro cancer screen, Ovarian Cancer; format: cell-based, human; conditions: SK-OV-3
HOP-62 = experiment: NCI in vitro cancer screen, Non-Small Cell Lung Cancer; format: cell-based, human; conditions: HOP-62
SK-MEL-5 = experiment: NCI in vitro cancer screen, Melanoma; format: cell-based, human; conditions: SK-MEL-5
MDA-MB-435 = experiment: NCI in vitro cancer screen, Melanoma; format: cell-based, human; conditions: MDA-MB-435
LOX IMVI = experiment: NCI in vitro cancer screen, Melanoma; format: cell-based, human
MOLT-4 = experiment: NCI in vitro cancer screen, Leukemia; format: cell-based, human; conditions: MOLT-4
HS 578T = experiment: NCI in vitro cancer screen, Breast Cancer; format: cell-based, human
TK-10 = experiment: NCI in vitro cancer screen, Renal Cancer; format: cell-based, human; conditions: TK-10
[1] = Homo sapiens, read-out: LC50 (the source's name)

CC(C)=CCOc1cc(O)cc(/C=C/c2ccc(O)c(O)c2)c1 [USYDS4, (E)-3-(3-methyl-2-butenyloxy)-3′,4′,5-trihydroxystilbene]
TGI (786-0): 20.5 µM
GI50 (786-0; Homo sapiens): 4.41 µM
LC50 (50% net cell kill) (786-0; Homo sapiens): > 100 µM
GI50 (PC-3; Homo sapiens): 4.47 µM
CC50 (PC-3; [1]): 87.9 µM
TGI (PC-3): 22.0 µM
GI50 (SNB-75; Homo sapiens): 1770 nM
CC50 (SNB-75; [1]): 48.3 µM
TGI (SNB-75): 9.11 µM
TGI (SN12C): 20.0 µM
GI50 (SN12C; Homo sapiens): 3.94 µM
CC50 (SN12C; [1]): 74.1 µM
TGI (HL-60 (TB)): 6.04 µM
GI50 (HL-60 (TB); Homo sapiens): 2590 nM
CC50 (HL-60 (TB); [1]): > 100 µM
GI50 (IGROV1; Homo sapiens, IGROV-1): 3.74 µM
CC50 (IGROV1; Homo sapiens, IGROV-1, read-out: LC50 (the source's name)): > 100 µM
TGI (IGROV1): 44.8 µM
GI50 (RXF-393; Homo sapiens): 2170 nM
CC50 (RXF-393; [1]): 46 µM
TGI (RXF-393): 15.3 µM
GI50 (OVCAR-3; Homo sapiens): 3.98 µM
CC50 (OVCAR-3; [1]): 44.9 µM
TGI (OVCAR-3): 15.0 µM
GI50 (OVCAR-5; Homo sapiens): 15.9 µM
CC50 (OVCAR-5; [1]): > 100 µM
TGI (OVCAR-5): 51.4 µM
GI50 (SF-268; Homo sapiens): 3.89 µM
CC50 (SF-268; [1]): > 100 µM
TGI (SF-268): 23.2 µM
GI50 (KM12; Homo sapiens): 3.27 µM
CC50 (KM12; [1]): 46.5 µM
TGI (KM12): 14.2 µM
TGI (A549/ATCC): 25.6 µM
GI50 (A549/ATCC; Homo sapiens): 4.74 µM
CC50 (A549/ATCC; [1]): > 100 µM
TGI (HOP-92): 13.6 µM
GI50 (HOP-92; Homo sapiens): 1920 nM
CC50 (HOP-92; [1]): 62.3 µM
GI50 (K-562; Homo sapiens, K562): 2350 nM
CC50 (K-562; Homo sapiens, K562, read-out: LC50 (the source's name)): > 100 µM
TGI (K-562): >100 µM
GI50 (SF-539; Homo sapiens): 3.45 µM
CC50 (SF-539; [1]): 97.5 µM
TGI (SF-539): 22.3 µM
TGI (A498): 23.5 µM
GI50 (A498; Homo sapiens): 9.07 µM
CC50 (A498; [1]): 55.2 µM
TGI (T-47D): 6.93 µM
GI50 (T-47D; Homo sapiens, T47D): 2130 nM
CC50 (T-47D; Homo sapiens, T47D, read-out: LC50 (the source's name)): > 100 µM
GI50 (NCI-H226; Homo sapiens): 5.14 µM
LC50 (50% lethal concentration) (NCI-H226; Homo sapiens): 78 µM
TGI (NCI-H226): 23.1 µM
GI50 (SW-620; Homo sapiens): 2970 nM
CC50 (SW-620; [1]): 46.5 µM
TGI (SW-620): 16.6 µM
GI50 (OVCAR-8; Homo sapiens): 4.94 µM
CC50 (OVCAR-8; [1]): > 100 µM
TGI (OVCAR-8): 31.1 µM
GI50 (NCI-H522; Homo sapiens): 1070 nM
CC50 (NCI-H522; [1]): 6.04 µM
TGI (NCI-H522): 2.54 µM
GI50 (UACC-62; Homo sapiens): 4.53 µM
CC50 (UACC-62; [1]): 44.4 µM
TGI (UACC-62): 16.8 µM
GI50 (SF-295; Homo sapiens): 7.29 µM
CC50 (SF-295; [1]): 70.9 µM
TGI (SF-295): 24.3 µM
GI50 (SK-OV-3; Homo sapiens): 8.91 µM
CC50 (SK-OV-3; [1]): > 100 µM
TGI (SK-OV-3): 57.0 µM
TGI (HOP-62): 26.3 µM
GI50 (HOP-62; Homo sapiens): 6.49 µM
CC50 (HOP-62; [1]): 83.4 µM
GI50 (SK-MEL-5; Homo sapiens): 1420 nM
CC50 (SK-MEL-5; [1]): 30 µM
TGI (SK-MEL-5): 8.35 µM
GI50 (MDA-MB-435; Homo sapiens): 360 nM
CC50 (MDA-MB-435; [1]): > 100 µM
TGI (MDA-MB-435): 21.6 µM
TGI (LOX IMVI): 19.3 µM
GI50 (LOX IMVI; Homo sapiens): 3.82 µM
CC50 (LOX IMVI; [1]): 58.5 µM
GI50 (MOLT-4; Homo sapiens): 4.31 µM
CC50 (MOLT-4; [1]): > 100 µM
TGI (MOLT-4): 21.6 µM
TGI (HS 578T): 7.11 µM
GI50 (HS 578T; Homo sapiens): 1000 nM
CC50 (HS 578T; [1]): > 100 µM
GI50 (TK-10; Homo sapiens): 3.87 µM
LC50 (TK-10; Homo sapiens): > 100 µM
TGI (TK-10): 9.66 µM

— US10696615B2, “Prenylated hydroxystilbenes” (The University of Sydney, priority 2011, dated 2020)
